Experimental data taken from article PMC7401407, “Development of WEE2 kinase inhibitors as novel non-hormonal female contraceptives that target meiosis” (Biology of Reproduction, 2020).
“Also recorded” adds a separate entry of the source.

Columns and labels:
human WEE1 protein = system: T1, human WEE1 protein; assay: ELISA of CDK1 phosphorylation (CycLex WEE1 Kinase Assay/Inhibitor Screening Kit), WEE1; assay type: biochemical; settings: 1 μM inhibitor, 60 min at 30 °C
T1 construct: purchased MBL International CYE1172

recombinant WEE2 protein = system: T2, recombinant WEE2 protein; assay: ELISA of CDK1 phosphorylation (CycLex kit), WEE2; assay type: biochemical, human; settings: 1 μM inhibitor, 60 min at 30 °C
T2 construct: made in house

bovine oocytes = assay: Bovine in vitro fertilization (exit from metaphase II arrest); assay type: cell-based
HEK 293 cells = assay: Somatic cell proliferation assay (dye dilution, flow cytometry); assay type: cell-based
From the text: To determine off-target effects of inhibitors on somatic cell WEE1, a proliferation assay was used as previously reported [22]. […] Independent cell cultures were collected at 0-, 48-, 72-, and 96-h post loading with a membrane permeable fluorophore, cell trace violet dye (Cat# C34557; ThermoFisher, Waltham, MA), which diminishes in concentration within the cell after each progressive division. Duplicate samples were collected and fixed for analysis by flow cytometry.
To evaluate the biological off-target effect of candidate inhibitors on mitosis, we use somatic cell culture and flow cytometry to assess proliferation disruption. […] Prior to each culture experiment, we treat the cells with a membrane permeable fluorescent dye to track cellular division activity. As cells divide the dye becomes diluted and the fluorescent signal decreases. We use flow cytometry, with at least 20 000 events counted to measure fluorescence intensity to indicate changes in cell proliferation in the presence of inhibitors [38]. The more inhibitory a drug, the more dye will be retained in the cells and so comparison can be made to controls to determine the level of mitotic activity.

MYT1 (PKMYT1) = system: MYT1 (PKMYT1); design: method as in PMID 28792760; settings: direct binding studies; cited from earlier work

C=CCn1c(=O)c2cnc(Nc3ccc(N4CCN(C)CC4)cc3)nc2n1-c1cccc(C(C)(C)O)n1 [MK-1775, Adavosertib]
WEE1 phosphorylation activity of CDK1 (human WEE1 protein): significantly reduces; also recorded: significantly inhibits
WEE2 phosphorylation activity of CDK1 (recombinant WEE2 protein): significantly reduces; also recorded: significantly inhibits
proportion of oocytes undergoing normal fertilization (bovine oocytes; 1 μM prior to and during IVF): reduction in the proportion of oocytes undergoing normal fertilization
reduction of MII exit compared to DMSO (bovine oocytes; bovine oocytes co-cultured with inhibitor during IVF, N = 126): 16%
somatic cell division activity (mitosis) (HEK 293 cells; HEK 293, 0.01 μM): decrease in mitosis
somatic cell division activity (mitosis) (HEK 293 cells; HEK 293, 0.1 μM): decrease in mitosis
somatic cell division activity (mitosis) (HEK 293 cells; HEK 293, 1 μM): inhibited mitosis in somatic cell culture after 48 h; also recorded: arrested the cell culture
activity against MYT1 relative to WEE1 and WEE2 (MYT1 (PKMYT1)): significantly weaker activity
